Experimental data: patent US20040167033A1, “Herbicidal composition” (priority 2001, published 2004)

Tested on: maize
Assay: Pre-emergence test (Example B2), greenhouse pots, phytotoxicity on maize
Type: in vivo
Description: The test plants are sown in pots under greenhouse conditions. A standard soil is used as cultivation substrate. At a pre-emergence stage, the herbicides, both on their own and in admixture with safener, are applied to the soil surface or to cultivated plants seed-dressed with safener. The rates of application depend on the optimum doses ascertained under field conditions or greenhouse conditions. The tests are evaluated after from 2 to 4 weeks (100% action=complete destruction, 0% action=no phytotoxic action). The mixtures used in this test show good results.

## CCc1cccc(C)c1N(C(=O)CCl)[C@@H](C)COC [S-metolachlor]
Table B2.1, S-metolachlor 1000 g/ha (EC 960), safener of formula II row prints 1000 g/ha
  Phytotoxicity on maize (%) 15 days after application: 7%
Table B2.1, S-metolachlor 2000 g/ha (EC 960), safener of formula II row prints 2000 g/ha
  Phytotoxicity on maize (%) 15 days after application: 20%
Table B2.1, S-metolachlor 4000 g/ha (EC 960), safener of formula II row prints 4000 g/ha
  Phytotoxicity on maize (%) 15 days after application: 40%
Table B2.1, S-metolachlor 6000 g/ha (EC 960), safener of formula II row prints 6000 g/ha, 100%=complete destruction
  Phytotoxicity on maize (%) 15 days after application: 53%
